Assay [1] relates to LNCaP-Vancouver prostate cells. Nature of the assay: In vitro LNCaP Vancouver prostate cell proliferation assay in lipid reduced medium. The assay is classed as cell-based. Conditions: read-out: pIC50 LNCaP_Vancouver prostate cell (converted). How it is done:
LNCaP-Vancouver prostate cells were obtained from the Vancouver Prostate Cancer Centre. Cells were maintained in RPMI-1640, 10% Fetal Calf Serum (FCS, Hyclone), 2 mM glutamine and 50 μg/ml Gentamicin.
For the proliferation experiment 1500 LNCaP-Vancouver cells per well were seeded in a 384-well black with clear bottom plate (costar 3712BC) in 40 μl RPMI-1640, 10% Lipid reduced serum (LRS, Hyclone), 50 μg/ml Gentamicin and 2 mM Glutamine and incubated at 37° C., 5% CO2. The next day 10 μl of test compound/DMSO diluted in medium was added (3E-5M, 1E-5M, 3E-6M, 1E-6M, 3E-7M, 1E-7M, 3E-8M, 1E-8M final concentration). Compounds were tested in duplicate. After 96 h incubation at 37° C., 5% CO2 25 μl ATP-glow mix was added. The plate was incubated for 30 min at 37° C. and luminescence was measured with the Envision.
Analysis: Determination of pIC50 Values
pIC50 values were calculated as follows.
where mLC and mHC are the means of the low control wells and high control wells on the plate, after manual exclusion of outliers. The relation between the % Controlmin values and concentration was fitted to a 4-parameter logistic curve using a non-linear least squares regression method to determine the pIC50 value. Outlying data points were excluded manually to get a correct fit. The pIC50 corresponds to −log 10(IC50), if the IC50 is expressed in molar units (http://www.ncbi.nlm.nih.gov/books/NBK91994). The IC50 parameter was always determined by non-linear regression, but one or more of the other parameters may have been held fixed on a relevant input value, such as 0 for the bottom values.
For dose response curves with FASN inhibitors in LNCaP-Vancouver or PC-3M-Luc-C6 cells the curves bottom out around 30 to 40% of the control value. A standard fit PL2, forcing the lower bound to this level was used.
Representative compounds of the present invention were tested according to the procedure as described in Biological Example 4a and 4b above, with results as listed in Table 9, below.

Assay [2] has as its system A2780 ovarian cells. Nature of the assay: A2780 ovarian cell proliferation assay in lipid reduced medium, without palmitate (MTT). The assay is classed as cell-based. The following applies: Homo sapiens, A2780, 96 h; read-out: pIC50 A2780 Ovarian Cell, Without Palmitate (converted).
For assay [3], the system named is A2780 ovarian cells. Kind of assay: A2780 ovarian cell proliferation assay in lipid reduced medium, with palmitate (MTT). The assay is classed as cell-based. The following applies: Homo sapiens, A2780, 96 h; read-out: pIC50 A2780 Ovarian Cell, With Palmitate (converted). An outline of the steps: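 Seeded cells were switched next day to lipid-reduced serum, exposed to compound and 25 μM palmitate complexed with fatty-acid-free BSA, and incubated 96 h. Proliferation was then determined by MTT absorbance at 544 nm, with a best-fit curve of signal against concentration.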

Assay [4] addresses Fatty Acid Synthase Keto-reductase Domain (FASN KR) (Homo sapiens, UniProt P49327). Nature of the assay: Fatty Acid Synthase keto-reductase domain (FASN KR) inhibition, NADPH oxidation at 340 nm.
Description: After 20 minutes incubation at room temperature the plate was measured again (T2).
The decrease in absorbance was calculated as (Absorbance before incubation T1)−(Absorbance following incubation T2).
A plot of Controlmin versus test compound concentration was fitted to a 4-parameter logistic curve using a non-linear least squares regression method.
The target in assay [5] is T1, hFASN enzyme (full length) (Homo sapiens, UniProt P49327).
T1 construct: 10 μL hFASN enzyme (full length, 300 ng, purified in house); made in house
Nature of the assay: Fatty Acid Synthase (FASN) inhibition scintillation proximity assay. The following applies: for inhibition at 10 µM: read-out: Human FASN % inhibition @ 10 μM, 10 μM test compound; for IC50: read-out: Human FASN pIC50 (converted). The assay is classed as biochemical. The gist of the method: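 Full-length in-house purified enzyme (300 ng) was tested in 100 mM KH2PO4 pH 7.5, 1 mM DTT with ³H-acetyl-CoA and malonyl-CoA as substrates; compounds ranged 0.01–30 μM. Reactions were stopped with streptavidin imaging beads, read by LEADseeker at 610 nm, and fitted to a 4-parameter logistic curve.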

Fatty Acid Synthase Keto-reductase Domain (FASN KR), sequence (P49327 whole entry, the tested form may be a part): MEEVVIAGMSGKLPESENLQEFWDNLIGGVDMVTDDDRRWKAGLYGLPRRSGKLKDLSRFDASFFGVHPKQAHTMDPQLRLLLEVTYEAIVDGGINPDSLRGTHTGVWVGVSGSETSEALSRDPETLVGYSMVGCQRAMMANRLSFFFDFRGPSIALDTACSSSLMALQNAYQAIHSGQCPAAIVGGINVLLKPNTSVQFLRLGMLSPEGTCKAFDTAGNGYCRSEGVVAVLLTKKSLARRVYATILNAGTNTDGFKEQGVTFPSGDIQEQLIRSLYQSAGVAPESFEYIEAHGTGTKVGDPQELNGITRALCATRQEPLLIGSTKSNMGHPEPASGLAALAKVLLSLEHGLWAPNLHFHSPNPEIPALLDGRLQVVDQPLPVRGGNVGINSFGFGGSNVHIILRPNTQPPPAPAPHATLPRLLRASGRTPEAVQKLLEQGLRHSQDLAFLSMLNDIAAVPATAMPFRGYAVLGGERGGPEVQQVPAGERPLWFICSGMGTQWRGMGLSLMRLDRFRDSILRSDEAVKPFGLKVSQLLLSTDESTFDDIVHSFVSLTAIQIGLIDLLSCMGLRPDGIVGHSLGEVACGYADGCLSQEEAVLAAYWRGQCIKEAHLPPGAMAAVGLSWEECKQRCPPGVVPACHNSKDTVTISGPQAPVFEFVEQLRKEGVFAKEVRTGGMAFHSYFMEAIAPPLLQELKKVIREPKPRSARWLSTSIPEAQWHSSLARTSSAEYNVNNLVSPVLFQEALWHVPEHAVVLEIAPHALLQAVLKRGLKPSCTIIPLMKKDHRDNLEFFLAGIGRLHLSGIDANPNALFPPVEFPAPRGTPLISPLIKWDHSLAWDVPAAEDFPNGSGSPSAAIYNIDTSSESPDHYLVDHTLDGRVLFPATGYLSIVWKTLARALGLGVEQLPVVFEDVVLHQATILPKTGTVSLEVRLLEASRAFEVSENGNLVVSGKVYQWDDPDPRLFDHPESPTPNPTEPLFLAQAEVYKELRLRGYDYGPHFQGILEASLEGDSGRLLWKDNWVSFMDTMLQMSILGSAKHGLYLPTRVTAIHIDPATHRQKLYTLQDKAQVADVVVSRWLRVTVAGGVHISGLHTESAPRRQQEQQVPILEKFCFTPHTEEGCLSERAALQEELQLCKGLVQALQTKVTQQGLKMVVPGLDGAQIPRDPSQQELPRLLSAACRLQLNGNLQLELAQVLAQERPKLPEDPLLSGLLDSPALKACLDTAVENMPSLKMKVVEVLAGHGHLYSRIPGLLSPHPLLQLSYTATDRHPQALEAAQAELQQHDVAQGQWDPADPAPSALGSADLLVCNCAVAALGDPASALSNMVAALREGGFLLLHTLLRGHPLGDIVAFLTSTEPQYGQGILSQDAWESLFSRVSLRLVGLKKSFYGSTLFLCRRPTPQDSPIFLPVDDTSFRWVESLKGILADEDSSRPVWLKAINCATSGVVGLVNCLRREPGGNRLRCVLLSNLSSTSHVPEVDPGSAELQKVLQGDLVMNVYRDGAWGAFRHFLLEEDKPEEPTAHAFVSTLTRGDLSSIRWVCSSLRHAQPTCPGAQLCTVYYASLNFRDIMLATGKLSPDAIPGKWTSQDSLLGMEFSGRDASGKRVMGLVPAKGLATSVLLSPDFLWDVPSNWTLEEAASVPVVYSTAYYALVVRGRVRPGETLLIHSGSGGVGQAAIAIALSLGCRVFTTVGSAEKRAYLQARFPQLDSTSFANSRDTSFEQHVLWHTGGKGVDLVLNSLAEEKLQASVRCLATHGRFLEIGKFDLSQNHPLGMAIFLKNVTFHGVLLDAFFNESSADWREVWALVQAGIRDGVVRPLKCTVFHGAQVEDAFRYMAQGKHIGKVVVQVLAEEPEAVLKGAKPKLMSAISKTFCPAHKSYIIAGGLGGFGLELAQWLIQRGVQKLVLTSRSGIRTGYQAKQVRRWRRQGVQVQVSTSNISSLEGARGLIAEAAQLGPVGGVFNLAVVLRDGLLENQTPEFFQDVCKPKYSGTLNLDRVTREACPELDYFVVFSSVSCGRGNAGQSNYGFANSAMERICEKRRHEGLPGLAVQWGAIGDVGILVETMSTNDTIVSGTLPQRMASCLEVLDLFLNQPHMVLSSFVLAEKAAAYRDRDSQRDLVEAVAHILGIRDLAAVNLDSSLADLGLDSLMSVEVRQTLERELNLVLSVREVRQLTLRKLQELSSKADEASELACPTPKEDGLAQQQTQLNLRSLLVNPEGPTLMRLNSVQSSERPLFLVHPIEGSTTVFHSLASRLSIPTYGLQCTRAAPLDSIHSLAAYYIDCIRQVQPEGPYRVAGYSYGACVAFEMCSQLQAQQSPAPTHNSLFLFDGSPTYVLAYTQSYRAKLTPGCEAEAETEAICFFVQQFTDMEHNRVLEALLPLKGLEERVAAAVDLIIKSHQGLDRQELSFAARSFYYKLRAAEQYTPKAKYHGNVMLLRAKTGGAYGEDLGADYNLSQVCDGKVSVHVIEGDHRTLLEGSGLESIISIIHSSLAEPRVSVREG
T1 sequence (P49327 whole entry): as the sequence (P49327 whole entry, the tested form may be a part) above

On to `O=C(C1CC1)N1CC[C@@H](CN2C(=O)C3(CC3)N=C2c2ccc(-c3ccc4cnc(F)cc4c3)cc2)C1` [compound 220, (R)-6-((1-(cyclopropanecarbonyl)pyrrolidin-3-yl)methyl)-5-(4-(3-fluoroisoquinolin-6-yl)phenyl)-4,6-diazaspiro[2.4]hept-4-en-7-one], for which the IC50 in assay [1] is 1070 nM; in the assay with A2780 ovarian cells [2], 339 nM; in the assay on A2780 ovarian cells [3] it was over 10000 nM; in assay [4] it was 263 nM; in assay [5], 91.2 nM. Further, the inhibition at 10 µM in assay [5] stood at 99%.
As for `Cc1cc(C2=NC3(CC3)C(=O)N2C[C@@H]2CCN(C(=O)C3CC3)C2)ccc1-c1ccc2sccc2c1` [compound 230, (R)-5-(4-(benzo[b]thiophen-5-yl)-3-methylphenyl)-6-((1-(cyclopropanecarbonyl)pyrrolidin-3-yl)methyl)-4,6-diazaspiro[2.4]hept-4-en-7-one], the IC50 in assay [1] is 1230 nM; in the assay with A2780 ovarian cells [2], 550 nM; with A2780 ovarian cells [3], over 10000 nM; in assay [4] it was 105 nM; in assay [5], 40.7 nM. Besides, the inhibition at 10 µM in assay [5] worked out at 107%.
With `O=C(C1CC1)N1CC[C@@H](CN2C(=O)C3(CC3)N=C2c2ccc(-c3ccc4occc4c3)c(F)c2)C1` [compound 232, (R)-5-(4-(benzofuran-5-yl)-3-fluorophenyl)-6-((1-(cyclopropanecarbonyl)pyrrolidin-3-yl)methyl)-4,6-diazaspiro[2.4]hept-4-en-7-one], the IC50 was 1820 nM in assay [1]; 2400 nM in the assay on A2780 ovarian cells [2]; over 6170 nM with A2780 ovarian cells [3]; 324 nM in assay [4]; 83.2 nM in assay [5]. For the same compound, the inhibition at 10 µM in assay [5] amounted to 105%.
For the compound `O=C(C1CC1)N1CC[C@@H](CN2C(=O)C3(CC3)N=C2c2ccc(-c3ccc4ncccc4c3)cc2F)C1` [compound 248, (R)-6-((1-(cyclopropanecarbonyl)pyrrolidin-3-yl)methyl)-5-(2-fluoro-4-(quinolin-6-yl)phenyl)-4,6-diazaspiro[2.4]hept-4-en-7-one], the IC50 in assay [1] was 479 nM; in the assay with A2780 ovarian cells [2], 513 nM; in the assay on A2780 ovarian cells [3] it was over 10000 nM; in assay [4], 148 nM; in assay [5], 69.2 nM. The inhibition at 10 µM in assay [5] worked out at 99%.
In the case of `Cc1sc2ccc(-c3ccc(C4=NC5(CC5)C(=O)N4C[C@@H]4CCN(C(=O)C5CC5)C4)cc3)cc2c1C` [compound 296, (R)-6-((1-(cyclopropanecarbonyl)pyrrolidin-3-yl)methyl)-5-(4-(2,3-dimethylbenzo[b]thiophen-5-yl)phenyl)-4,6-diazaspiro[2.4]hept-4-en-7-one], the IC50 in assay [1] is 3630 nM; in the assay with A2780 ovarian cells [2] it was about 2090 nM; in the assay with A2780 ovarian cells [3], over 10000 nM; in assay [4] it was 81.3 nM; in assay [5], 38.9 nM. Also, in assay [5], the inhibition at 10 µM came out at 106%.
As for `Cc1cc(-c2ccc3cn(C)nc3c2)ccc1C1=NC2(CC2)C(=O)N1CC1CN(C(=O)C2(C)CC2)C1` [compound 336, 5-(2-methyl-4-(2-methyl-2H-indazol-6-yl)phenyl)-6-((1-(1-methylcyclopropanecarbonyl)azetidin-3-yl)methyl)-4,6-diazaspiro[2.4]hept-4-en-7-one], the IC50 in assay [1] was 105 nM; with A2780 ovarian cells [2], 20 nM; in the assay with A2780 ovarian cells [3], over 10000 nM; in assay [4], 69.2 nM; in assay [5] it was 50.1 nM. The inhibition at 10 µM in assay [5] was 103%.
`Cn1ncc2cc(-c3ccc(C4=NC5(CC5)C(=O)N4CC4CN(C(=O)C5CC5)C4)c(F)c3)ccc21` [compound 347, 6-((1-(cyclopropanecarbonyl)azetidin-3-yl)methyl)-5-(2-fluoro-4-(1-methyl-1H-indazol-5-yl)phenyl)-4,6-diazaspiro[2.4]hept-4-en-7-one]: the IC50 in assay [1] is 708 nM; in the assay with A2780 ovarian cells [2] it was about 50.1 nM; with A2780 ovarian cells [3] it was over 10000 nM; in assay [4], 120 nM; in assay [5] it was 49 nM. Besides, in assay [5], the inhibition at 10 µM came to 98%.
Take `Cn1ncc2cc(-c3ccc(C4=NC5(CC5)C(=O)N4C[C@@H]4CCN(C(=O)C5CC5)C4)nc3)ccc21` [compound 397, 6-{[(3R)-1-(Cyclopropylcarbonyl)pyrrolidin-3-yl]methyl}-5-[5-(1-methyl-1H-indazol-5-yl)pyridin-2-yl]-4,6-diazaspiro[2.4]hept-4-en-7-one]: the IC50 in assay [1] is 3020 nM; in the assay with A2780 ovarian cells [2], 1550 nM; with A2780 ovarian cells [3], over 10000 nM; in assay [4], about 3890 nM. For the same compound, the “Human FASN pIC50” value in assay [5] (hFASN enzyme full length, scintillation proximity assay, "~" = standard error of pIC50 larger than 0.5) amounted to 6.1. Moreover, the inhibition at 10 µM in assay [5] was determined as 90%.
For `Cc1sc2ccc(-c3ccc(C4=NC5(CC5)C(=O)N4C[C@@H]4CCN(C(=O)C5CC5)C4)cc3F)cc2c1C` [compound 406, 6-{[(3R)-1-(Cyclopropylcarbonyl)pyrrolidin-3-yl]methyl}-5-[4-(2,3-dimethyl-1-benzothiophen-5-yl)-3-fluorophenyl]-4,6-diazaspiro[2.4]hept-4-en-7-one], the IC50 in assay [1] is 7080 nM; in the assay with A2780 ovarian cells [2], 6030 nM; in the assay with A2780 ovarian cells [3], over 10000 nM; in assay [4], 363 nM; in assay [5] it was 126 nM. For the same compound, the inhibition at 10 µM in assay [5] came out at 99%.
As to `O=C(C1CC1)N1CC[C@@H](CN2C(=O)C3(CC3)N=C2c2ccc(-c3cccc4[nH]ncc34)cn2)C1` [compound 429, 6-{[(3R)-1-(Cyclopropylcarbonyl)pyrrolidin-3-yl]methyl}-5-[5-(1H-indazol-4-yl)pyridin-2-yl]-4,6-diazaspiro[2.4]hept-4-en-7-one], the IC50 in assay [1] was 1320 nM; with A2780 ovarian cells [2], 417 nM; with A2780 ovarian cells [3], over 10000 nM; in assay [4], 513 nM; in assay [5], 240 nM. Further, the inhibition at 10 µM in assay [5] was found to be 96%.
On to `Cc1cc(C2=NC3(CC3)C(=O)N2CC2CN(C(=O)C3CC3)C2)ccc1-c1ccc2[nH]ccc2c1` [compound 435, 6-{[1-(Cyclopropylcarbonyl)azetidin-3-yl]methyl}-5-[4-(1H-indol-5-yl)-3-methylphenyl]-4,6-diazaspiro[2.4]hept-4-en-7-one], for which the IC50 in assay [1] was 3470 nM; with A2780 ovarian cells [2], about 933 nM; with A2780 ovarian cells [3], over 10000 nM; in assay [4], 1230 nM; in assay [5], 263 nM. The inhibition at 10 µM in assay [5] was 91%.
On to `Cn1nc(C2CC2)c2cc(-c3ccc(C4=NC5(CC5)C(=O)N4C[C@@H]4CCN(C(=O)C5CC5)C4)cc3)ccc21` [compound 465, 6-{[(3R)-1-(Cyclopropylcarbonyl)pyrrolidin-3-yl]methyl}-5-[4-(3-cyclopropyl-1-methyl-1H-indazol-5-yl)phenyl]-4,6-diazaspiro[2.4]hept-4-en-7-one], for which the IC50 in assay [1] was 525 nM; in the assay with A2780 ovarian cells [2], 182 nM; in the assay on A2780 ovarian cells [3], over 10000 nM; in assay [4] it was 200 nM; in assay [5], 151 nM. For the same compound, in assay [5], the inhibition at 10 µM came to 99%.
Regarding `O=C(C1CC1)N1CC[C@@H](CN2C(=O)C3(CC3)N=C2c2ccc(-c3ccc4cnc(Cl)cc4c3)cc2)C1` [compound 466, 5-[4-(3-Chloroisoquinolin-6-yl)phenyl]-6-{[(3R)-1-(cyclopropylcarbonyl)pyrrolidin-3-yl]methyl}-4,6-diazaspiro[2.4]hept-4-en-7-one], the IC50 is 3800 nM in assay [1]; about 2690 nM in the assay on A2780 ovarian cells [2]; over 10000 nM in the assay on A2780 ovarian cells [3]; 1350 nM in assay [4]; 479 nM in assay [5]. In addition, the inhibition at 10 µM in assay [5] was 87%.

Values taken from US10077261B2, “Imidazolin-5-one derivative useful as FASN inhibitors for the treatment of cancer” (Janssen Pharmaceutica NV, priority 2012, dated 2018).
